Measurements from US20050163801A1, “Method of inducing apoptosis and compositions therefor” (Kyowa Engineering Co., Ltd., priority 2001, published 2005).

Columns and labels:
Format in all cases: cell-based
HL-60 cell lines = test: Apoptosis inducing activity (Test 3), TUNEL method; conditions: culture for two days
Protocol: 3. Apoptosis inducing activity (Test 3): Measurement was performed using a terminal deoxynucleotidyl transferase (TdT)-mediated deoxyuridine triphosphate (dUTP)-biotin nick end-labeling method (TUNEL method). The TUNEL method is a method for identifying apoptosis on a tissue slice reported by Gavrieli et al. in 1992 (Yael Gavrieli et al., The Journal of Cell Biology, vol. 119, No.3, November, 1992, p. 493-501). The method is known to be a method which enables observation of apoptosis at the individual cell level at various states of morbidity and allows comparison with morphology changes. The TUNEL method was performed with HL-60 cell lines using Apoptosis in situ Detection Kit wako (Wako Pure Chemical Industries, Ltd.), according to the method of Gavrieli et al., supra.
The results of FIG. 9 show results measured for respective test groups. […] Based on the above results, cell death of HL60 cell lines by ABMK-22 are confirmed to be death caused by the induction of apoptosis.
For identifying the ingredient having the apoptosis induction activity in ABMK-22 obtained in Example 2, ABMK-22 was further purified and fractionated. The obtained ingredient was subjected to the method described in section “3. […]
Next, the apoptosis induction activity of a ly-ophilized powder of ABMK0415 and ABMK6873 were measured as described in section “3. […]

[1] = system: dendric cells (DC) derived from human peripheral blood monocytes; test: Immune activation activity: induction of dendritic cells from peripheral blood monocytes, CD80 expression by flow cytometry; conditions: for DCs with increase in expression of CD80: analysed on seventh day
Description: Dendritic cells are involved in the establishment of immunity. Dendritic cells may also be called arborescent cells, dendritic leukocyte, or D cells. This is the generic term for cell groups having dendritic form derived from myelocytes distributed in various tissue organs in the living body except for the brain. The cell groups include lymphoid dendritic cells, Langerhans cells, veil cells, inter-connected cells, and interstitional cells. Accompanying an inflammation response caused by invasion of foreign matter, the cells perform pinocytosis, and move from a local spot via the vas afferens to an associated lymph node or to the spleen through bloodstream. The cells are known to start an immune response after they reach a T cell-dependent region by presenting an antigen in a form combined with class II antigen and by activating specific T cells. Namely, the cells play an important role in the immune system. In the present example, the immune activation activity of ABMK0415 and ABMK6873 were confirmed by assaying the induction power of monocytes to dendritic cells.
Peripheral blood of two healthy people was used as a material with donor consent.
PBMC were separated from a whole blood specimen which was collected with heparinization by a Ficoll-Paque density centrifugal separation method.
ABMK0415 and ABMK6873 were used as test samples. ABMK0415 and ABMK6873 were respectively dissolved in culture media of cells used for tests (10% FCS added RPMI-1640, 5% human AB serum added RPMI-1640) such that each mixture has a concentration of 200 mg/ml. The mixtures were filter-sterilized through a filter having a pore diameter of 0.22 μm to obtain test samples.
An effect of immune activation of novel compounds was examined in vittro through induction power for dendric cells (DC) derived from human peripheral blood monocytes.
PBMC was processed with a dish treatment for one hour with a carbon dioxide gas incubator. Thus, a monocyte-rich attachment cell fraction was obtained. The cells obtained were cultured in 5% human AB serum added RPMI-1640 (NIKKEN BIOLOGICAL MEDICAL RESEARCH), in the presence of 500 U/ml of GM-CSF (DIACLONE Research) and IL-4(BD Biosciences).
For culturing, a dish (NUNC) having a diameter of 3.5 cm was used. On the sixth day of culture, Picibanil and the novel compound were added such that the final concentration is 0.1 KE/ml for Picibanil, and 200 μg/ml for ABMK0415and ABMK6873. Picibanil (Chugai Pharmaceutical Co., Ltd.) was used as a positive control which has a DC induction power. […]
All DCs in the dish were collected on the seventh day after the culture started. The surface antigen thereof was analyzed by flow cytometry using a monoclonal antibody (anti-CD80; BD Bioscience). […]

HL60 cell line [2] = test: Cell growth suppression activity (Test 1), cell number by counting chamber
Protocol: 1. Cell growth suppression activity (Test 1): For assay, the Collagen gel droplet embedded culture-drug sensitivity test (CD-DST method) and a counting chamber were used.
A method using a counting chamber was performed following the method described in Rinsho Kensaho Teiyo (Kanai's Manual of Clinical Laboratory Medicine), 30th Ed. (Aug. 20, 1993; Kanehara & Co., Ltd.; Tokyo).
Based on the results of measurement using HL60 cell lines, it became clear that the CD-DST method is not suitable for measuring the growth state of suspended cells. Therefore, the cell growth suppression activity was measured using a counting chamber.
First, growth of HL60 cell lines was examined in the presence of ABMK-22 at various concentrations to obtain a growth curve of the HL60 line. More specifically, an initial number of cells of HL 60 cell lines was set to be 200,000/ mL. ABMK-22 was added to have concentrations of 0.1, 0.25, 0.5, 0.75, 1, 2, 2.5, 3, 4and 5 mg/1 mL, respectively and cultured. The number of the cells was measured over time for four days.
Each of the symbols in FIG. 1 indicates the result of measurement of the number of the cells (number/ml) in the presence of ABMK-22 at the concentration of the number indicated in the lower part of FIG. 1 by the symbols. […]

HL60 cell line [3] = test: Cell differentiation inducing activity (Test 2), NBT reduction; conditions: used by itself; NBT reducing power
Protocol: 2. Cell differentiation inducing activity (Test 2): Evaluation was made using Nitro blue tetrazolium (NBT) reduction power. NBT reduction was performed in accordance with the method of S. J. Collins et al. (Int. J. Cancer: 25, pages 213-218 (1980)). In brief, the method is as follows: about 2×10^5 HL60 cells were pelleted, and washed in RPMI-1640 medium. Then, the cells were suspended in RPMI-1640 medium containing 0.1% NBT and 100 ng/ml of phorbol ester (TPA), and cultured for forty minutes at 37° C. The resultant culture was observed under microscope and cells containing blue-black deposits were assessed as differentiated cells. In the presence of ABMK-22 at various concentrations, HL60 cells were cultured for four days and the differentiation inducing power of ABMK-22 was measured. The results of measuring NBT reducing power, which is an indicator of differentiation of a HL60 cell line under each concentration, are shown in FIG. 7. […] At a concentration of 4 mg/mL, about 33% of the cells that were alive were differentiated.

O=Cc1ccc(CO)n1CCCC(=O)O [ABMK0415, N-(3-carboxypropyl)-2-formyl-5-hydroxy-methylpyrrole]
cells in which apoptosis was induced (apoptosis positive cells) (HL-60 cell lines; 2.07×10^−4M): about 35%
DCs with increase in expression of CD80 ([1]; 200 μg/ml added on sixth day): about 20%

N[C@@H](CCC(=O)NNc1ccc(C=O)cc1)C(=O)O [ABMK6873]
cells in which apoptosis was induced (apoptosis positive cells) (HL-60 cell lines; 2.7×10^−4M): about 70%
growth of HL-60 cells (HL60 cell line [2]; 2.7×10^−4M): remarkably suppressed
growth of HL-60 cells (HL60 cell line [2]; various concentrations (2.07×10^−6M to 2.07×10^−4M ABMK0415; 2.7×10^−6M to 2.7×10^−4M ABMK6873)): suppress growth of HL-60 cells in nearly a concentration-dependent manner
expression induction of CD80 molecules ([1]; 200 μg/ml added on sixth day): remarkably strong expression induction of CD80 molecules
DCs with increase in expression of CD80 ([1]; 200 μg/ml added on sixth day): about 92%
DC inducing power ([1]; compared with Picibanil): stronger than that of Picibanil

CC1=C(/C=C/C(C)=C/C=C/C(C)=C/C(=O)O)C(C)(C)CCC1 [ATRA, all-trans retinoic acid]
concentration at which the agent by itself does not exhibit cell differentiation induction activity (HL60 cell line [3]): ≤ 10^−9 M

C=C1/C(=C\C=C2/CCC[C@]3(C)[C@@H]([C@H](C)CCCC(C)(C)O)CC[C@@H]23)C[C@@H](O)C[C@@H]1O [VD3, 1α, 25(OH)2D3]
concentration at which the agent by itself does not exhibit cell differentiation induction activity (HL60 cell line [3]): ≤ 10^−10 M
